Data reported in PMC7377239, “Cardiovascular Effects of Polychlorinated Biphenyls and Their Major Metabolites” (Environmental Health Perspectives, 2020).
Structures can show the parent of a compound that is named as a salt. Where two headings read alike, the source gives them in different places.

Assays:
[1] = system: iCell endothelial cells (human iPSC-derived ECs); assay: High-content imaging cytotoxicity in iCell endothelial cells, 24 h; format: cell-based; settings: Homo sapiens, Endothelial cell, 24 hr; for viability at 0.1 µM / activity at 0.1 µM: 0.10 µM
In short: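 Readouts were vehicle-normalised and fitted to a four-parameter logistic model. POD was set at one SD beyond 0.5% DMSO control means, and 100 µM was assigned when no response was seen. Cells were monolayers of iCell endothelial cells imaged after 24 h compound exposure using nuclear, mitochondrial and calcein dyes.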

HUVECs = assay: Tube formation (tubulogenesis) assay in HUVECs, 18 h; format: cell-based, human; settings: Homo sapiens, HUVEC, 18 h; for activity at 0.1 µM: 0.10 µM
In short: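 HUVECs (passage 1–5) seeded on reduced-growth-factor basement membrane and exposed to compounds overnight at 37°C, 5% CO2, in 2× maintenance medium with 12.5 ng/mL VEGF; 0.5% DMSO vehicle. Calcein AM-stained tube networks imaged and analysed; vehicle-normalized readouts fit to four-parameter logistic, POD set at one SD of vehicle means.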

[2] = iPSC-EC, 0.00 µM control = 100.00, read-out: endo.cyto.24hr
[3] = iPSC-EC, 0.00 µM control = 100.00, read-out: endo.mito.24hr
[4] = iPSC-EC, 0.00 µM control = 100.00, read-out: endo.mitoint.24hr
[5] = iPSC-EC, 0.00 µM control = 100.00, read-out: endo.nma.24hr
[6] = iPSC-EC, 0.00 µM control = 100.00, read-out: endo.tc.24hrs
[7] = HUVECs, 0.00 µM = 100.00, read-out: huvec.mtl.18hr
[8] = HUVECs, 0.00 µM = 100.00, read-out: huvec.tlps.18hr
[9] = HUVECs, 0.00 µM = 100.00, read-out: huvec.tta.18hr
[10] = HUVECs, 0.00 µM = 100.00, read-out: huvec.ttl.18hr

## Oc1cccc(-c2ccc(Cl)cc2)c1 [3'-OH PCB3]
[1]; [2]
  viability at 0.01 µM: 93.4%
  viability at 0.1 µM: 99.8%
  viability at 1 µM: 98.9%
  viability at 10 µM: 102%
  viability at 100 µM: 45.2%
[1]; [3]
  activity at 0.01 µM: 93.6%
  activity at 0.1 µM: 100%
  activity at 1 µM: 99.4%
  activity at 10 µM: 102%
  activity at 100 µM: 58%
[1]; [4]
  activity at 0.01 µM: 123%
  activity at 0.1 µM: 111%
  activity at 1 µM: 118%
  activity at 10 µM: 129%
  activity at 100 µM: 98.4%
[1]; [5]
  activity at 0.01 µM: 101%
  activity at 0.1 µM: 97.6%
  activity at 1 µM: 97.4%
  activity at 10 µM: 98.3%
  activity at 100 µM: 90.1%
[1]; [6]
  viability at 0.01 µM: 93.4%
  viability at 0.1 µM: 99.8%
  viability at 1 µM: 98.9%
  viability at 10 µM: 102%
  viability at 100 µM: 79.2%
[1]; iPSC-EC, top concentration 100.00 µM, read-out: endo.cyto.24hr POD
  minimal effective concentration: 45.8 µM
[1]; iPSC-EC, top concentration 100.00 µM, read-out: endo.mito.24hr POD
  minimal effective concentration: 45.8 µM
[1]; iPSC-EC, top concentration 100.00 µM, read-out: endo.mitoint.24hr POD
  minimal effective concentration: 100 µM
[1]; iPSC-EC, top concentration 100.00 µM, read-out: endo.nma.24hr POD
  minimal effective concentration: 9.75 µM
[1]; iPSC-EC, top concentration 100.00 µM, read-out: endo.tc.24hrs POD
  minimal effective concentration: 53.2 µM
HUVECs; [7]
  activity at 0.01 µM: 96.9%
  activity at 0.1 µM: 102%
  activity at 1 µM: 93%
  activity at 10 µM: 70.2%
  activity at 100 µM: 72.3%
HUVECs; [8]
  activity at 0.01 µM: 88.1%
  activity at 0.1 µM: 83.7%
  activity at 1 µM: 89.2%
  activity at 10 µM: 66.1%
  activity at 100 µM: 25.9%
HUVECs; [9]
  activity at 0.01 µM: 90.6%
  activity at 0.1 µM: 124%
  activity at 1 µM: 91.7%
  activity at 10 µM: 58.6%
  activity at 100 µM: 17.3%
HUVECs; [10]
  activity at 0.01 µM: 92%
  activity at 0.1 µM: 127%
  activity at 1 µM: 95.4%
  activity at 10 µM: 61.5%
  activity at 100 µM: 15.5%
HUVECs; HUVECs, top concentration 100.00 µM, read-out: huvec.mtl.18hr POD
  minimal effective concentration: 1.14 µM
HUVECs; HUVECs, top concentration 100.00 µM, read-out: huvec.tlps.18hr POD
  minimal effective concentration: 1.01 µM
HUVECs; HUVECs, top concentration 100.00 µM, read-out: huvec.tta.18hr POD
  minimal effective concentration: 3.65 µM
HUVECs; HUVECs, top concentration 100.00 µM, read-out: huvec.ttl.18hr POD
  minimal effective concentration: 3.26 µM

## O=S(=O)(O)Oc1cc(Cl)c(-c2cc(Cl)ccc2Cl)cc1Cl [4-PCB 52 sulfate]
[1]; endothelial cells (endo), cyto, read-out: POD endo.cyto.24hr
  minimal effective concentration: 41.2 µM
[1]; endothelial cells (endo), mito, read-out: POD endo.mito.24hr
  minimal effective concentration: 41.2 µM
[1]; endothelial cells (endo), mitoint, read-out: POD endo.mitoint.24hr
  minimal effective concentration: 100 µM
[1]; endothelial cells (endo), nma, read-out: POD endo.nma.24hr
  minimal effective concentration: 100 µM
[1]; endothelial cells (endo), tc, read-out: POD endo.tc.24hr
  minimal effective concentration: 50.3 µM
HUVECs; tube formation mtl, read-out: POD huvec.mtl.18hr
  minimal effective concentration: 14.6 µM
HUVECs; tube formation tlps, read-out: POD huvec.tlps.18hr
  minimal effective concentration: 10.1 µM
HUVECs; tube formation tta, read-out: POD huvec.tta.18hr
  minimal effective concentration: 100 µM
HUVECs; tube formation ttl, read-out: POD huvec.ttl.18hr
  minimal effective concentration: 100 µM
